Our source for the IC50 values is patent US10259811B2, “Tank-binding kinase inhibitor compounds” (Gilead Sciences, Inc., priority 2014, dated 2019).

A word on the IC50: it is the midpoint of a concentration-inhibition curve.

One assay deals with IKKε (Homo sapiens (Human), UniProt Q14164). Nature of the assay: TR-FRET enzymatic assay, phosphorylation of biotinylated serine/threonine peptide substrate (IKKε). In kind it is biochemical. The note with it: full length recombinant IKKε at 0.3 nM, 2×Km ATP (40-80 μM), 1 μM peptide, 240 minutes at 25° C.; geometric mean of minimum four determinations. From the text: Biological Assay for TBK1 and IKKε:
Background: Time-resolved FRET reads energy transfer from a long-lived donor to a nearby acceptor.

A further assay addresses TBK1 (Homo sapiens (Human), UniProt Q9UHD2). The experiment in a line: TR-FRET enzymatic assay, phosphorylation of biotinylated serine/threonine peptide substrate (TBK1). The note with it: read-out: TBK1-IC50; full length recombinant TBK1, 2×Km ATP (40-80 μM), 1 μM peptide, 240 minutes at 25° C.; geometric mean of minimum four determinations.

Sequence of IKKε (Q14164 whole entry): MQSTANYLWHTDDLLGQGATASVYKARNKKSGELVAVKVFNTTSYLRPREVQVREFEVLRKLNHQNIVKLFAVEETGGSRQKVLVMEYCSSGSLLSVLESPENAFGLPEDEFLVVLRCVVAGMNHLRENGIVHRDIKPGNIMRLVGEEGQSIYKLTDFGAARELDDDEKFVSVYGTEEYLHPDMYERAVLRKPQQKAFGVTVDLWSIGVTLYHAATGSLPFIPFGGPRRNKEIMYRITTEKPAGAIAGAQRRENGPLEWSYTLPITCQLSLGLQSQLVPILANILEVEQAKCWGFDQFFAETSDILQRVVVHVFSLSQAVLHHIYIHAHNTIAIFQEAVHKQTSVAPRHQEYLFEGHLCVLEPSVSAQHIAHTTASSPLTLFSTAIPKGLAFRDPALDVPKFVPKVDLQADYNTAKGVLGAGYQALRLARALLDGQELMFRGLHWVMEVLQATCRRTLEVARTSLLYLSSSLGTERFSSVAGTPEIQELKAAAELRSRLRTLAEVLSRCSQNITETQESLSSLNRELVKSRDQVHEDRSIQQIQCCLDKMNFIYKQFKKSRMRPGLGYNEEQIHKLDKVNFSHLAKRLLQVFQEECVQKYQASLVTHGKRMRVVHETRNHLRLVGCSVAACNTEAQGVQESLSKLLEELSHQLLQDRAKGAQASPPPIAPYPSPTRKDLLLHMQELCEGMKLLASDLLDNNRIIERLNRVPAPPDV
Sequence of TBK1 (Q9UHD2 whole entry): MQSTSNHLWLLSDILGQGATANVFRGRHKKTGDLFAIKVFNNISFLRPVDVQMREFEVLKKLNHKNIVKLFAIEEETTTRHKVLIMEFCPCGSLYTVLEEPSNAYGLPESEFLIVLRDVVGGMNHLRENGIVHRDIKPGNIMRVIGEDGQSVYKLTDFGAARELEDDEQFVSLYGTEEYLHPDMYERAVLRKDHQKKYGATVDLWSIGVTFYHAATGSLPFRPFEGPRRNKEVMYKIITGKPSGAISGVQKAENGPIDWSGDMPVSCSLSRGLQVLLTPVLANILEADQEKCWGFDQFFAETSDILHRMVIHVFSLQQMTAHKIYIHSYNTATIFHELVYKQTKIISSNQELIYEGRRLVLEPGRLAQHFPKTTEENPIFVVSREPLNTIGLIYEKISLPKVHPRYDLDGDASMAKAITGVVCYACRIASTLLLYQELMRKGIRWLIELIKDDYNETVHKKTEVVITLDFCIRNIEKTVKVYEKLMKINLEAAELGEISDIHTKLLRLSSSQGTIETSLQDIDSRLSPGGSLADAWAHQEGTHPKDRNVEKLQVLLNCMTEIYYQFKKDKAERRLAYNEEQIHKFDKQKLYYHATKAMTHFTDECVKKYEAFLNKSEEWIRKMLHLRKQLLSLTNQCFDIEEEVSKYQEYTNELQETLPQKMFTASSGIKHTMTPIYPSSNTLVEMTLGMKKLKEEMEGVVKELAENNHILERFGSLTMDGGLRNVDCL
Method for TBK1: Enzymatic activity of IKKε and TBK1 was measured using a homogeneous time resolved fluorescence resonance energy transfer (TR-FRET) assay that monitors enzyme dependent phosphorylation of a biotinylated serine/threonine peptide substrate. […] TBK1 and IKKε were expressed and purified as full length recombinant proteins. Detection reagents for the assay were purchased from Cisbio. […] After an assay reaction time of 240 minutes at 25° C., reactions were terminated with EDTA.
Amount of phosphorylated peptide was determined by the addition of 125 nM streptavidin XL665 and europium cryptate labeled anti-phospho monoclonal antibody and the resulting TR-FRET signal was recorded on an Envision plate reader (Ex: 340 nm; Em: 615/665 nm; 100 μs delay and 200 μs read window). […] All IC50 values represent geometric mean values of a minimum of four determinations.

As for `Cc1nc(-c2ccc(OC3CCOCC3)c(C#N)c2)c2nc(-c3ccc(N4CCOCC4)cc3)[nH]c2n1` [Example 214, 5-(2-methyl-8-(4-morpholinophenyl)-9H-purin-6-yl)-2-((tetrahydro-2H-pyran-4-yl)oxy)benzonitrile], the IC50 at IKKε and at TBK1 was greater than 1000 nM throughout. In the case of “5-(6-(4-(4-(2,2-difluoroethyl)piperazin-1-yl)phenyl)-7H-pyrrolo[2,3-d]pyrimidin-4-yl)-2-(piperidin-4-yloxy)benzonitrile [Example 265]”, the IC50 stood at 58.7 nM at IKKε and 16.2 nM at TBK1. Consider “5-(6-(4-(4-(2,2-difluoroethyl)piperazin-1-yl)phenyl)-7H-pyrrolo[2,3-d]pyrimidin-4-yl)-2-((1-(2-hydroxyacetyl)piperidin-4-yl)oxy)benzonitrile [Example 264]”, for which the concentration for half-maximal inhibition (IC50) at TBK1 worked out at 0.91 nM. Turning to `N#Cc1cc(-c2ncnc3[nH]c(-c4ccc(N5CCOCC5)c(F)c4)nc23)ccc1OC1CCN(C(=O)CO)CC1` [Example 241, 5-(8-(3-fluoro-4-morpholinophenyl)-9H-purin-6-yl)-2-((1-(2-hydroxyacetyl)piperidin-4-yl)oxy)benzonitrile], the IC50 on IKKε worked out at 1.3 nM; at TBK1, 2.64 nM.

For the molecule “5-(6-(1,4-dioxaspiro[4.5]dec-7-en-8-yl)-7H-pyrrolo[2,3-d]pyrimidin-4-yl)-2-((1-(2-hydroxyacetyl)piperidin-4-yl)oxy)benzonitrile [Example 175]”, at IKKε, the IC50 was 5.84 nM.
